Measurements published in ChEMBL document CHEMBL2417452, “Psammaplysin F: a unique inhibitor of bacterial chromosomal partitioning” (Bioorg Med Chem Lett, 2013).

Key:
Staphylococcus aureus [1] = experiment: Antibacterial activity against methicillin-resistant Staphylococcus aureus USA-300 assessed as growth inhibition at 50 uM after 5 hrs by BacTiter-Glo microbial assay relative to control; type: functional
Staphylococcus aureus [2] = experiment: Antibacterial activity against methicillin-resistant Staphylococcus aureus MW2 assessed as growth inhibition at 50 uM after 5 hrs by BacTiter-Glo microbial assay relative to control; type: functional
Staphylococcus aureus [3] = experiment: Antibacterial activity against methicillin-resistant Staphylococcus aureus USA-300 after 20 to 24 hrs by two-fold broth microdilution method; type: functional, organism-based
Bacillus cereus [4] = experiment: Antibacterial activity against Bacillus cereus NCTC 7464 after 20 to 24 hrs by two-fold broth microdilution method; type: functional, organism-based
Staphylococcus aureus [5] = experiment: Antibacterial activity against methicillin-resistant Staphylococcus aureus MW2 after 20 to 24 hrs by two-fold broth microdilution method; type: functional, organism-based
Enterococcus faecalis [6] = experiment: Antibacterial activity against Enterococcus faecalis NCTC 775 after 20 to 24 hrs by two-fold broth microdilution method; type: functional, organism-based
Staphylococcus aureus [7] = experiment: Antibacterial activity against Staphylococcus aureus 1H after 20 to 24 hrs by two-fold broth microdilution method; type: functional, organism-based
Staphylococcus aureus [8] = experiment: Antibacterial activity against Staphylococcus aureus NCTC 6571 after 20 to 24 hrs by two-fold broth microdilution method; type: functional, organism-based
Salmonella typhimurium = experiment: Antibacterial activity against Salmonella typhimurium assessed as growth inhibition at 50 uM after 5 hrs by BacTiter-Glo microbial assay relative to control; type: functional; details: Salmonella enterica subsp. enterica serovar Typhimurium
Pseudomonas aeruginosa = experiment: Antibacterial activity against Pseudomonas aeruginosa PAO1 assessed as growth inhibition at 50 uM after 5 hrs by BacTiter-Glo microbial assay relative to control; type: functional
Klebsiella pneumoniae = experiment: Antibacterial activity against Klebsiella pneumoniae NCIB 8805 assessed as growth inhibition at 50 uM after 5 hrs by BacTiter-Glo microbial assay relative to control; type: functional
Escherichia coli = experiment: Antibacterial activity against Escherichia coli assessed as growth inhibition at 50 uM after 5 hrs by BacTiter-Glo microbial assay relative to control; type: functional
Bacillus cereus [9] = experiment: Antibacterial activity against Bacillus cereus NCTC 7464 assessed as growth inhibition at 50 uM after 5 hrs by BacTiter-Glo microbial assay relative to control; type: functional
Enterococcus faecalis [10] = experiment: Antibacterial activity against Enterococcus faecalis NCTC 775 assessed as growth inhibition at 50 uM after 5 hrs by BacTiter-Glo microbial assay relative to control; type: functional
Staphylococcus aureus [11] = experiment: Antibacterial activity against penicillin-resistant Staphylococcus aureus 1H assessed as growth inhibition at 50 uM after 5 hrs by BacTiter-Glo microbial assay relative to control; type: functional
Staphylococcus aureus [12] = experiment: Antibacterial activity against Staphylococcus aureus NCTC 6571 assessed as growth inhibition at 50 uM after 5 hrs by BacTiter-Glo microbial assay relative to control; type: functional
Staphylococcus aureus [13] = experiment: Disruption of plasma membrane integrity in Staphylococcus aureus 1H assessed as extracellular ATP release at 20 uM after 15 to 120 mins by BacTiter-Glo microbial assay relative to control; type: functional

Row | Molecule | growth inhibition (GI) (Staphylococcus aureus [1]) | growth inhibition (GI) (Staphylococcus aureus [2]) | MIC (Staphylococcus aureus [3]) | MIC (Bacillus cereus [4]) | MIC (Staphylococcus aureus [5]) | MIC (Enterococcus faecalis [6]) | MIC (Staphylococcus aureus [7]) | MIC (Staphylococcus aureus [8]) | growth inhibition (GI) (Salmonella typhimurium) | growth inhibition (GI) (Pseudomonas aeruginosa) | growth inhibition (GI) (Klebsiella pneumoniae) | growth inhibition (GI) (Escherichia coli) | growth inhibition (GI) (Bacillus cereus [9]) | growth inhibition (GI) (Enterococcus faecalis [10]) | growth inhibition (GI) (Staphylococcus aureus [11]) | growth inhibition (GI) (Staphylococcus aureus [12]) | fold change (FC) (Staphylococcus aureus [13])
1 | GENTAMICIN | 90% | 93% | 3.1 µM | 1.6 µM | 1.6 µM | 25 µM | 1.6 µM | 0.8 µM | 82% | 86% | 83% | 87% | 82% | 77% | 89% | 95% | –
2 | COC1=C(Br)C[C@]2(OC=C1Br)ON=C(C(=O)NCCCOc1c(Br)cc(CC[N+](C)(C)C)cc1Br)[C@@H]2O.O=C([O-])C(F)(F)F | – | – | – | – | – | – | – | – | – | – | – | – | – | – | – | – | 2
